Data as given in PubChem BioAssay AID1996.
≈ marks a conversion by molar mass, not a printed value.

conditions: buffer; pH 7.4; 200.0 µM

Cc1ccc(-c2noc(CCCC(=O)NC3CCCC3)n2)cc1 and CN(Cc1nc(-c2cccc(Cl)c2)no1)C1CCOCC1 are within 1.5-fold of each other in solubility kinetic: 44 µg/mL (≈ 140 µM) for the first, 36.9 µg/mL (≈ 120 µM) for the second.

First: CC(C)S(=O)(=O)c1csc(NC(=O)Nc2cccc([N+](=O)[O-])c2)c1Cl
Second: COc1ccc(NC(=O)Nc2ccc([N+](=O)[O-])cc2)cn1
The solubility kinetic of the first is lower: < 0.3 µg/mL for the first, 0.9 µg/mL (≈ 3.12 µM) for the second.

Compared with O=C(Cc1ccc(Br)cc1)Nc1ccccc1N1CCCC1, CC1CCN(c2ccccc2NC(=O)c2ccc([N+](=O)[O-])o2)CC1 is 5.2-fold lower in solubility kinetic: 2.6 µg/mL (≈ 7.24 µM) for the first, 0.5 µg/mL (≈ 1.52 µM) for the second.

COc1ccc(CCN(C)c2ncnc3sccc23)cc1OC and COC(=O)c1ccc(COc2ncnc3ccccc23)o1 cannot be ordered by solubility kinetic: > 49.4 µg/mL for the first, > 42.6 µg/mL for the second.

Going from Cc1cc(C(=O)Nc2ccc3c(c2)OCCO3)ccc1[N+](=O)[O-] to N#Cc1ccsc1NC(=O)c1ccc(Cl)c([N+](=O)[O-])c1, the solubility kinetic rises from < 0.3 µg/mL to 2.9 µg/mL (≈ 9.42 µM).

O=S(=O)(NCC1CCCO1)c1ccc(Cl)nc1 (stereo unspecified) and Nn1c(SCC(=O)NCC2CCCO2)nnc1-c1ccco1 (stereo unspecified) cannot be ordered by solubility kinetic: > 41.5 µg/mL for the first, > 48.5 µg/mL for the second.

Going from C=CCn1cc(C=C2C(=O)N(C)C(=O)N(C)C2=O)c2ccccc21 to Cc1ccccc1Cn1cc(C)c(=O)[nH]c1=O, the solubility kinetic rises from 0.8 µg/mL (≈ 2.47 µM) to 29.5 µg/mL (≈ 128 µM) (37-fold).

CCOc1ccccc1C(=O)N[C@H](C(=O)OCc1csc(CC(=O)Nc2ccc(C)cc2)n1)C(C)C and CCOc1ccccc1NC(=O)Cc1coc2ccc(C)cc12 are within 1.5-fold of each other in solubility kinetic: 6.9 µg/mL (≈ 13.5 µM) for the first, 7.3 µg/mL (≈ 23.6 µM) for the second.

Compared with Cc1ccc(S(=O)(=O)NC(CC(=O)O)c2ccc(F)cc2)cc1 (stereo unspecified), Cc1ccc(O)c(N/C=C/C(=O)c2ccc(F)cc2)c1 is 32-fold lower in solubility kinetic: 34.8 µg/mL (≈ 103 µM) for the first, 1.1 µg/mL (≈ 4.05 µM) for the second.

Going from Cc1ccccc1CSCCC(=O)NCCc1ccccc1 to OCc1nc2ccccc2n1CCc1ccccc1, the solubility kinetic rises from 9.8 µg/mL (≈ 31.3 µM) to 36.1 µg/mL (≈ 143 µM) (3.7-fold).

Going from O=C1Cc2ccccc2C(c2c(Cl)cccc2Cl)N1 (stereo unspecified) to O=C1CN(C(=O)COC(=O)CCS(=O)(=O)c2ccccc2Cl)c2ccccc2N1, the solubility kinetic rises from < 0.6 µg/mL to > 65.5 µg/mL.

Compared with C=C(C)n1c(=O)n(Cc2ccccc2C)c2ccccc21, Cc1ccccc1S(=O)(=O)Nc1ncnc2ccccc12 is higher in solubility kinetic: 16 µg/mL (≈ 57.5 µM) for the first, > 44.9 µg/mL for the second.

Cc1ccc(NC(=S)Nc2ccc(OC(F)F)c(Cl)c2)cc1F and COc1ccc(NS(=O)(=O)c2ccc(Cl)c(NC(=O)c3ccccc3F)c2)cc1 are within 1.5-fold of each other in solubility kinetic: 3.5 µg/mL (≈ 9.7 µM) for the first, 2.6 µg/mL (≈ 5.98 µM) for the second.

Going from COc1cc(Cl)c(C)cc1NC(=O)CSC1=NCCS1 to COc1ccc(OC)c2c1sc(=NC(=O)C1CC1)n2C, the solubility kinetic falls from 11 µg/mL (≈ 33.2 µM) to 0.9 µg/mL (≈ 3.08 µM) (12-fold).

First: COc1cccc(NC(=O)c2cccnn2)c1
Second: COc1cccc(NC(=O)CC2Oc3ccccc3NC2=O)c1 (stereo unspecified)
The solubility kinetic of the first is higher: > 34.4 µg/mL for the first, 6.7 µg/mL (≈ 21.5 µM) for the second.

Compared with COc1ccc(NC(=O)c2cc(C)nc3ccccc23)cc1S(=O)(=O)N1CCOCC1, Cl.NCc1ccccc1CS(=O)(=O)N1CCOCC1 is higher in solubility kinetic: 6.1 µg/mL (≈ 13.8 µM) for the first, > 46 µg/mL for the second.

COc1ccc(C)cc1NC(=O)CCNC(=O)c1ccco1 and CCCN(CC(=O)Nc1ccccc1OC)C(=O)c1ccncc1 cannot be ordered by solubility kinetic: > 45.3 µg/mL for the first, > 49.1 µg/mL for the second.

Going from CN(c1ccccc1)S(=O)(=O)c1cccc(C(=O)OCC(=O)Nc2ccc(C(N)=O)cc2)c1 to NC(=O)c1ccc(NC(=O)COC(=O)c2ccc3ccccc3n2)cc1, the solubility kinetic rises from 9.9 µg/mL (≈ 21.2 µM) to 18.8 µg/mL (≈ 53.8 µM) (1.9-fold).

Going from NC(=O)c1ccc(NC(=O)COC(=O)CCC2CCCCC2)cc1 to CCN(CC)c1ccc(C(=O)OCC(=O)N2CCCC2)cc1, the solubility kinetic rises from 9.1 µg/mL (≈ 27.4 µM) to > 45.7 µg/mL.

Going from Cl.O=C(NCCCN1CCOCC1)C(=O)c1c[nH]c2ccccc12 to CC(=O)NCCC(=O)Nc1nc(-c2c[nH]c3ccccc23)cs1, the solubility kinetic falls from > 52.8 µg/mL to 42.9 µg/mL (≈ 131 µM).

c1csc(-c2nc(CN3CCSCC3)cs2)c1 and CC(=O)C(Sc1nccc(-c2cccs2)n1)C(C)=O are within 1.5-fold of each other in solubility kinetic: 32.8 µg/mL (≈ 116 µM) for the first, 40.5 µg/mL (≈ 139 µM) for the second.

CC[n+]1ccc(/C=C/c2c[nH]c3ccccc23)cc1.[Cl-] and OCc1nc2c(ccc3ccccc32)[nH]1 cannot be ordered by solubility kinetic: 32.8 µg/mL for the first, > 29.7 µg/mL for the second.

O=S(=O)(c1ccc2c(c1)CCCN2)N1CCCC1 and Cc1ccc(CN(C)C(=O)c2cccc(S(=O)(=O)N3CCCC3)c2)o1 cannot be ordered by solubility kinetic: > 40 µg/mL for the first, > 54.4 µg/mL for the second.

Compared with Cc1ccc(NC(=S)NC(=O)C2CCC2)cc1C, O=C(N/N=C/c1ccc(O)c(O)c1)C1CC1 is higher in solubility kinetic: 3.3 µg/mL (≈ 12.6 µM) for the first, > 33 µg/mL for the second.

Compared with COc1cc(C)nc(-n2nc(C)cc2OC)n1, Cc1cc2ncn(CS(C)(=O)=O)c2cc1C is lower in solubility kinetic: > 35.1 µg/mL for the first, 34.3 µg/mL (≈ 144 µM) for the second.

Compared with Cc1ccnc(NC(=O)CCC(=O)c2cccs2)c1, Cc1cc(C)c(C(=O)COC(=O)c2cccnc2Cl)c(C)c1 is lower in solubility kinetic: > 41.2 µg/mL for the first, 7.3 µg/mL (≈ 23 µM) for the second.

CCOC(=O)N1CCN(C(=O)c2cc3cc(C)ccc3[nH]2)CC1 and CCCc1c(C)[nH]c2ccc(C(=O)O)cc2c1=S cannot be ordered by solubility kinetic: 41.6 µg/mL (≈ 132 µM) for the first, > 39.2 µg/mL for the second.

First: Cc1cc(=O)[nH]c(SCC(=O)Nc2ccc3c(c2)CCC3)c1C#N
Second: O=C(Cn1cc([N+](=O)[O-])ccc1=O)N1CCc2ccccc2C1
The solubility kinetic of the first is lower: 17.7 µg/mL (≈ 52.1 µM) for the first, > 47 µg/mL for the second.

Compared with Nc1ccc(Nc2nc3ccccc3[nH]2)cc1, COc1ccc(-c2cn3ccccc3n2)cc1 is higher in solubility kinetic: 25.8 µg/mL (≈ 115 µM) for the first, > 33.6 µg/mL for the second.

CCCC(=O)NCc1ccncc1 and CC(=O)Nc1ccc(CC#N)cc1 cannot be ordered by solubility kinetic: > 26.7 µg/mL for the first, > 26.1 µg/mL for the second.

First: Cc1cccc(NC(=O)c2cccnc2Oc2ccccc2)c1C(=O)O
Second: O=C(Nc1c(F)cccc1F)C(c1ccccc1)c1ccccc1
The solubility kinetic of the first is higher: > 52.3 µg/mL for the first, < 0.7 µg/mL for the second.

Going from CN1CCN(c2nc3ccccn3c(=O)c2C=O)CC1.Cl to O=[N+]([O-])c1ccc(N2CCN(c3ccccc3)CC2)nc1, the solubility kinetic falls from 45 µg/mL to 0.6 µg/mL (≈ 2.11 µM) (75-fold).

First: CCN(CC)c1ccc(CNCCc2ccccc2F)cc1.Cl
Second: CCN(c1cccc2ccccc12)S(=O)(=O)c1cccs1
The solubility kinetic of the first is higher: > 50.5 µg/mL for the first, 12.5 µg/mL (≈ 39.4 µM) for the second.

Compared with O=C(NC1CCCCC1)C1CC(=O)N(Cc2ccccc2)C1 (stereo unspecified), CC(=O)NC1C(=O)N(Cc2ccccc2)c2ccc(Br)cc21 (stereo unspecified) is lower in solubility kinetic: > 45.1 µg/mL for the first, 18 µg/mL (≈ 50.1 µM) for the second.

CC1CCCCC1NC(=O)COC(=O)c1ccc([N+](=O)[O-])o1 (stereo unspecified) and N#CC1(NC(=O)COc2cccnc2[N+](=O)[O-])CCCCC1 cannot be ordered by solubility kinetic: > 46.5 µg/mL for the first, > 45.6 µg/mL for the second.

First: C=CCC(Nc1ccccc1)c1cccc(OC)c1OC (stereo unspecified)
Second: COc1ccccc1-n1c(O)c(/C=C2\C=Nc3ccccc32)c(=O)[nH]c1=O
The solubility kinetic of the first is 2.5-fold higher: 10.8 µg/mL (≈ 38.1 µM) for the first, 4.4 µg/mL (≈ 12.2 µM) for the second.

Compared with O=C(NC(=S)NCc1ccccc1)c1cccc([N+](=O)[O-])c1, CSc1ccccc1NC(=O)CN(C)C(C)C(=O)NCc1ccc2c(c1)OCO2 (stereo unspecified) is 7.3-fold higher in solubility kinetic: 2.2 µg/mL (≈ 6.98 µM) for the first, 16 µg/mL (≈ 38.5 µM) for the second.

Going from S=C(c1ccc(-c2ccc(Cl)cc2Cl)o1)N1CCCC1 to Cc1nc(-c2cccc(NC(=O)c3ccc(Br)o3)c2)cs1, the solubility kinetic rises from < 0.7 µg/mL to 17.2 µg/mL (≈ 47.4 µM).

Compared with O=[N+]([O-])c1cnccc1NC1CCCCC1, COc1cc([N+](=O)[O-])ccc1NC(=O)/C=C/C(=O)O is higher in solubility kinetic: 29.1 µg/mL (≈ 132 µM) for the first, > 39.9 µg/mL for the second.

Compared with c1coc(-c2ccnc(-c3ccncc3)n2)c1, O=C(Oc1c(-c2ccccc2)c(=O)n2c3c(cccc13)CC2)c1ccccc1 is lower in solubility kinetic: > 33.5 µg/mL for the first, 4.8 µg/mL (≈ 13.1 µM) for the second.

CNCCc1c[nH]c2ccc(O)cc12.O=C(O)C(=O)O and COCCNC(=O)c1cc(C(=O)CC(C)C)c[nH]1 cannot be ordered by solubility kinetic: > 42 µg/mL for the first, > 37.8 µg/mL for the second.

First: CC(C)CN(C(=O)C1CC1)C1CCS(=O)(=O)C1 (stereo unspecified)
Second: CCc1sc(-c2ccccc2)nc1C(=O)OC
The solubility kinetic of the first is higher: > 38.9 µg/mL for the first, < 0.5 µg/mL for the second.

First: CCOc1ccc(N=Cc2c(O)n(-c3ccc(C)c(C)c3)c(=O)[nH]c2=O)cc1
Second: CCOC(=O)C(=CNc1ccc2c(c1)c1ccccc1n2CC)C(=O)OCC
The solubility kinetic of the first is higher: 2.9 µg/mL (≈ 7.64 µM) for the first, < 0.4 µg/mL for the second.
